From ChEMBL document CHEMBL3044672, “N9- and N7-(Chloromethyl Phenymethyl)Chloropurine Derivatives from , '-Dichloroxylenes: Synthesis and Anticancer Activity” (2005)

Key:
Format in all cases: functional
SF-268 = experiment: Cytotoxicity against Homo sapiens (human) SF268 cells after 48 hr by sulforhodamine B assay; conditions: SF-268, 48 h
K562 = experiment: Cytotoxicity against Homo sapiens (human) K562 cells after 48 hr by sulforhodamine B assay; conditions: K562, 48 h
UACC-257 = experiment: Cytotoxicity against Homo sapiens (human) UACC257 cells after 48 hr by sulforhodamine B assay; conditions: UACC-257, 48 h
NCI-H460 [1] = experiment: Cytotoxicity against Homo sapiens (human) NCI-H460 cells assessed as cell growth at 10^-4 M after 48 hr by Alamar blue assay; conditions: NCI-H460, 48 h, read-out: Activity
SNB-75 = experiment: Cytotoxicity against Homo sapiens (human) SNB75 cells after 48 hr by sulforhodamine B assay; conditions: SNB-75, 48 h
M14 = experiment: Cytotoxicity against Homo sapiens (human) M14 cells after 48 hr by sulforhodamine B assay; conditions: M14, 48 h
MCF7 [2] = experiment: Cytotoxicity against Homo sapiens (human) MCF7 cells after 48 hr by sulforhodamine B assay; conditions: MCF7, 48 h
COLO 205 = experiment: Cytotoxicity against Homo sapiens (human) COLO205 cells after 48 hr by sulforhodamine B assay; conditions: COLO 205, 48 h
NCI-H522 = experiment: Cytotoxicity against Homo sapiens (human) NCI-H522 cells after 48 hr by sulforhodamine B assay; conditions: NCI-H522, 48 h
CAKI-1 = experiment: Cytotoxicity against Homo sapiens (human) Caki1 cells after 48 hr by sulforhodamine B assay; conditions: CAKI-1, 48 h
SK-MEL-28 = experiment: Cytotoxicity against Homo sapiens (human) SK-MEL-28 cells after 48 hr by sulforhodamine B assay; conditions: SK-MEL-28, 48 h
OVCAR-5 = experiment: Cytotoxicity against Homo sapiens (human) OVCAR5 cells after 48 hr by sulforhodamine B assay; conditions: OVCAR-5, 48 h
TK-10 = experiment: Cytotoxicity against Homo sapiens (human) TK10 cells after 48 hr by sulforhodamine B assay; conditions: TK-10, 48 h
MCF7 [3] = experiment: Cytotoxicity against Homo sapiens (human) MCF7 cells assessed as cell growth at 10^-4 M after 48 hr by Alamar blue assay; conditions: MCF7, 48 h, read-out: Activity
HT-29 = experiment: Cytotoxicity against Homo sapiens (human) HT-29 cells after 48 hr by sulforhodamine B assay; conditions: HT-29, 48 h
OVCAR-8 = experiment: Cytotoxicity against Homo sapiens (human) OVCAR8 cells after 48 hr by sulforhodamine B assay; conditions: OVCAR-8, 48 h
NCI-H460 [4] = experiment: Cytotoxicity against Homo sapiens (human) NCI-H460 cells after 48 hr by sulforhodamine B assay; conditions: NCI-H460, 48 h
Hs-578T = experiment: Cytotoxicity against Homo sapiens (human) Hs 578T cells after 48 hr by sulforhodamine B assay
HOP-92 = experiment: Cytotoxicity against Homo sapiens (human) HOP92 cells after 48 hr by sulforhodamine B assay; conditions: HOP-92, 48 h
NCI-H226 = experiment: Cytotoxicity against Homo sapiens (human) NCI-H226 cells after 48 hr by sulforhodamine B assay; conditions: NCI-H226, 48 h
NCI-H23 = experiment: Cytotoxicity against Homo sapiens (human) NCI-H23 cells after 48 hr by sulforhodamine B assay; conditions: NCI-H23, 48 h
BT-549 = experiment: Cytotoxicity against Homo sapiens (human) BT549 cells after 48 hr by sulforhodamine B assay; conditions: BT-549, 48 h
U-251 = experiment: Cytotoxicity against Homo sapiens (human) U251 cells after 48 hr by sulforhodamine B assay; conditions: U-251, 48 h
[5] = Cytotoxicity against Homo sapiens (human) NCI-ADR-RES cells after 48 hr by sulforhodamine B assay
MDA-MB-435 = experiment: Cytotoxicity against Homo sapiens (human) MDA-MB-435 cells after 48 hr by sulforhodamine B assay; conditions: MDA-MB-435, 48 h
SN12C = experiment: Cytotoxicity against Homo sapiens (human) SN12C cells after 48 hr by sulforhodamine B assay
[6] = read-out: LC50 (the source's name)

ClCc1ccccc1Cn1cnc2nc(Cl)nc(Cl)c21
GI50 (SF-268): 3.01 µM
TGI (SF-268): 24.5 µM
CC50 (SF-268; [6]): > 100 µM
GI50 (K562): 0.25 µM
TGI (K562): 0.69 µM
CC50 (K562; [6]): > 100 µM
GI50 (UACC-257): 1.99 µM
LC50 (concentration killing 50% of cells) (UACC-257): 8.7 µM
TGI (UACC-257): 4.16 µM
growth at 100 µM (NCI-H460 [1]): 0%
GI50 (SNB-75): 1.9 µM
TGI (SNB-75): 4.46 µM
CC50 (SNB-75; [6]): > 100 µM
GI50 (M14): 1.86 µM
LC50 (M14): 6.45 µM
TGI (M14): 3.46 µM
GI50 (MCF7 [2]): 1.04 µM
LC50 (concentration killing 50% of cells) (MCF7 [2]): > 100 µM
TGI (MCF7 [2]): 2.57 µM
GI50 (COLO 205): 0.35 µM
TGI (COLO 205): > 100 µM
CC50 (COLO 205; [6]): > 100 µM
GI50 (NCI-H522): 2.95 µM
TGI (NCI-H522): 7.24 µM
CC50 (NCI-H522; [6]): > 100 µM
GI50 (CAKI-1): 19.5 µM
TGI (CAKI-1): 34.7 µM
CC50 (CAKI-1; [6]): 61.6 µM
GI50 (SK-MEL-28): 0.35 µM
LC50 (concentration killing 50% of cells) (SK-MEL-28): > 100 µM
TGI (SK-MEL-28): > 100 µM
GI50 (OVCAR-5): 2.69 µM
TGI (OVCAR-5): 5.75 µM
CC50 (OVCAR-5; [6]): 28.8 µM
GI50 (TK-10): 19.5 µM
TGI (TK-10): 33.9 µM
CC50 (TK-10; [6]): 60.2 µM
growth at 100 µM (MCF7 [3]): 0%
GI50 (HT-29): 0.4 µM
TGI (HT-29): > 100 µM
CC50 (HT-29; [6]): > 100 µM
GI50 (OVCAR-8): 2.75 µM
LC50 (concentration killing 50% of cells) (OVCAR-8): 75.9 µM
TGI (OVCAR-8): 7.07 µM
GI50 (NCI-H460 [4]): 2.39 µM
TGI (NCI-H460 [4]): 5.88 µM
CC50 (NCI-H460 [4]; [6]): > 100 µM
GI50 (Hs-578T): 0.67 µM
LC50 (Hs-578T): > 100 µM
TGI (Hs-578T): 2.57 µM
GI50 (HOP-92): 1.14 µM
TGI (HOP-92): 2.81 µM
CC50 (HOP-92; [6]): > 100 µM
GI50 (NCI-H226): 2.13 µM
TGI (NCI-H226): 6.76 µM
CC50 (NCI-H226; [6]): 28.2 µM
GI50 (NCI-H23): 19.1 µM
TGI (NCI-H23): 40.7 µM
CC50 (NCI-H23; [6]): 87.1 µM
GI50 (BT-549): 1.34 µM
LC50 (50% lethal concentration) (BT-549): 7.07 µM
TGI (BT-549): 3.09 µM
GI50 (U-251): 0.33 µM
LC50 (concentration killing 50% of cells) (U-251): 3.63 µM
TGI (U-251): 1.17 µM
GI50 [5]: 2.34 µM
LC50 (concentration killing 50% of cells) [5]: > 100 µM
TGI [5]: 5.01 µM
GI50 (MDA-MB-435): 16.6 µM
LC50 (MDA-MB-435): 58.9 µM
TGI (MDA-MB-435): 30.9 µM
GI50 (SN12C): 1.17 µM
LC50 (50% lethal concentration) (SN12C): 5.62 µM
TGI (SN12C): 2.57 µM
